Measurements as given in US9078851B2, “Composition for preventing or treating a spinal cord injury” (UNIVERSITY-INDUSTRY COOPERATION GROUP OF KYUNG HEE, priority 2009, dated 2015).

System: caspase-3
Assay: Western blot of cleaved caspase-3 in spinal cord tissue
Type: in vivo, rat
Settings: tail vein injection, one day and five days after injury
Procedure: For the present experiment, male white mice (Sprague-Dawley 240-250 g, 7 weeks, 10 mice) were under general anesthetics by an intraperitoneal injection of Ketamin (80 mg/kg, Yuhan Corporation) and Rompun (7.4 mg/kg, Bayer Korea Corporation). Laminectomy was performed at spine T9-10 level to expose a spinal cord keeping intact dura. And then, rat was put on Spinal cord dropping device (NYU); spine processes at T8 and T11 sites were fixed by using a clamp, respectively; then, a rod (diameter 2 mm, weight 10 g) was dropped from 25 mm height vertical to dorsal part of spinal cord followed by suturing injury site muscle and skin. The rat of Sham-operated control group was performed only laminectomy at same area without damaging spinal cord injury (marked by ‘sham” in figures; hereinafter, the same as above). […]
(2) Substance P or saline (the same volume without Substance P) was injected to a tail vein of mice, respectively at immediately, 1 d, 2 ds after a spinal cord injury, using the same method as (1) of Example 1. […] The amounts of proteins in supernatant were determined by using BCA assay (Pierce). […] At this time, β-Tubulin was used as an inner comparing group, and each result were determined by performing four independent experiments.

Substance P
activation of caspase-3: significantly decreased
